Experimental data from patent publication US20240360114A1 (SIRONAX LTD., priority 2021, published 2024).
pEC50: −log10 of the molar value.

Tested on: HT-1080 cells
Assay: HT-1080 cell viability assay (ferroptosis induced by RSL3, Cell Titer-Glo)
Assay type: cell-based
Conditions: Homo sapiens, HT-1080, 20 h, ferroptosis inducer RSL3, 20 hours, ferroptosis inhibitory activity
Method in brief: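 Cells seeded overnight, then co-treated with RSL3 and compound (3-fold, 10-point dilution, top 1.1 μM) for 20 hours. Viability by CellTiter-Glo luminescence, normalized to untreated controls; EC50 from sigmoidal non-linear regression.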

Row | pEC50 (Table 2) | pEC50 (Table 3) | SMILES
1 | 7.00 to 10.00 |  | NC1CC2(C1)CC(Nc1ccc(N3CCC(C(F)(F)F)CC3)nc1)C2 (centres unmarked) [Compound 397, N2-(6-(4-(trifluoromethyl)piperidin-1-yl)pyridin-3-yl)spiro[3.3]heptane-2,6-diamine]
2 | 7.00 to 10.00 |  | NNC(=O)C1CC2(CC(Nc3cnc(N4CCC(C(F)(F)F)CC4)nc3)C2)C1 (centres unmarked) [Compound 427, 6-((2-(4-(trifluoromethyl)piperidin-1-yl)pyrimidin-5-yl)amino)spiro[3.3]heptane-2-carbohydrazide]
3 | 5.00 to 6.00 |  | NC1CCC(Nc2cccc3c2CCO3)CC1 (centres unmarked) [Compound 164, N1-(2,3-dihydrobenzofuran-4-yl)cyclohexane-1,4-diamine]
4 |  | 7.00 to 10.00 | Cc1nc(N2CC(C)OC(C)C2)ccc1NC1CCC2(CC1)CC(N)C2 (centres unmarked) [Compound 624, N^7-(6-(2,6-dimethylmorpholino)-2-methylpyridin-3-yl)spiro[3.5]nonane-2,7-diamine]
5 | 7.00 to 10.00 |  | CC1CN(c2ccc3cc(NC4CC5(CC(N)C5)C4)ccc3c2)CC(C)O1 (centres unmarked) [Compound 564, N^2-(6-(2,6-dimethylmorpholino)naphthalen-2-yl)spiro[3.3]heptane-2,6-diamine]
6 | 7.00 to 10.00 |  | CC(C)(C)c1ccc(NC2CCC(CCCCCN)CC2)cc1 (centres unmarked) [Compound 326, N-(4-(5-aminopentyl)cyclohexyl)-4-(tert-butyl)aniline]
7 | 6.00 to 7.00 |  | Cc1nc(N2CCOCC2)ccc1NC1C2CC3CC1CC(N)(C3)C2 (centres unmarked) [Compound 517, N4-(2-methyl-6-morpholinopyridin-3-yl)adamantane-1,4-diamine]
8 | 7.00 to 10.00 |  | COC(C)(C)C1CCN(c2ccc(NC3CC4(CC(N)C4)C3)c(C)n2)CC1 (centres unmarked) [Compound 529, N2-(6-(4-(2-methoxypropan-2-yl)piperidin-1-yl)-2-methylpyridin-3-yl)spiro[3.3]-heptane-2,6-diamine]
9 | 7.00 to 10.00 |  | Cc1nc(N2CCC(C(F)(F)F)CC2)ccc1NC[C@H]1CC[C@H](NC(=O)C2CNC(=O)C2)CC1 (some centres unmarked) [Compound 378, N-((1r,4r)-4-(((2-methyl-6-(4-(trifluoromethyl)piperidin-1-yl)pyridin-3-yl)amino)methyl)cyclohexyl)-5-oxopyrrolidine-3-carboxamide]
10 | 7.00 to 10.00 |  | Cc1c(NC2CCC(N)CC2)ccc(N2CCC(C(F)(F)F)CC2)c1F (centres unmarked) [Compound 57, N1-(3-fluoro-2-methyl-4-(4-(trifluoromethyl)piperidin-1-yl)phenyl)cyclohexane-1,4-diamine]
11 | 7.00 to 10.00 |  | CCCC1CCN(c2ncc(NC3CCC(N)CC3)cn2)CC1 (centres unmarked) [Compound 29, N1-(2-(4-propylpiperidin-1-yl)pyrimidin-5-yl)cyclohexane-1,4-diamine]
12 | 7.00 to 10.00 |  | CC1CN(c2ccc(NC3C[C@H]4CC(N)C[C@H]4C3)cc2F)CC(C)O1 (stereo partly drawn) [Compound 460, (3aR, 6aS)-N2-(4-(2,6-dimethylmorpholino)-3-fluorophenyl) octahydropentalene-2,5-diamine]
13 | 7.00 to 10.00 |  | Cc1c(NC[C@H]2CC[C@H](N)CC2)ccc(N2CC(C)OC(C)C2)c1F (some centres unmarked) [Compound 433, N-(((1r,4r)-4-aminocyclohexyl)methyl)-4-(2,6-dimethylmorpholino)-3-fluoro-2-methylaniline]
14 | 6.00 to 7.00 |  | CC1CC(Nc2ccc(C(C)(C)C)cc2)CCC1O (centres unmarked) [Compound 233A]
15 | 7.00 to 10.00 |  | CC(C)Nc1ccc(N2CCC(C(F)(F)F)CC2)cc1 [Compound 7, N-isopropyl-4-(4-(trifluoromethyl)piperidin-1-yl)aniline]
16 | 7.00 to 10.00 |  | CNC1CCC(Nc2ccc(C(C)(C)C)cc2)CC1 (centres unmarked) [Compound 147, N1-(4-(tert-butyl)phenyl)-N4-methylcyclohexane-1,4-diamine]
17 | 7.00 to 10.00 |  | CC1(C)CCC(C)(C)c2cc(NC[C@H]3CC[C@H](N)CC3)ccc21 [Compound 338, N-(((1r,4r)-4-aminocyclohexyl)methyl)-5,5,8,8-tetramethyl-5,6,7,8-tetrahydronaphthalen-2-amine]
18 | 6.00 to 7.00 |  | CC(C)(C)c1ccc(N[C@H]2CC[C@@H](N)CC2)cc1 [Compound 198, (1s,4s)-N1-(4-(tert-butyl)phenyl)cyclohexane-1,4-diamine]
19 | 7.00 to 10.00 |  | N[C@H]1CC[C@H](CNc2ccc(N3CCC(C(F)(F)F)CC3)nc2)CC1 [Compound 398, N-(((1r,4r)-4-aminocyclohexyl)methyl)-6-(4-(trifluoromethyl)piperidin-1-yl)pyridin-3-amine]
20 | 7.00 to 10.00 |  | CC(C)(C)c1ccc(NC2CCC(CNc3cn[nH]c3)CC2)cc1 (centres unmarked) [Compound 348, N-((4-((4-(tert-butyl)phenyl)amino)cyclohexyl)methyl)-1H-pyrazol-4-amine]
21 | 6.00 to 7.00 |  | Cc1nc(N2CC(C)OC(C)C2)ccc1NC1CCC(N)CC1 (centres unmarked) [Compound 443, N1-(6-(2,6-dimethylmorpholino)-2-methylpyridin-3-yl)cyclohexane-1,4-diamine]
22 | 7.00 to 10.00 |  | CC(C)C1CCN(c2ncc(NC[C@H]3CC[C@@H](N)CC3)cn2)CC1 [Compound 361, N-(((1s,4s)-4-aminocyclohexyl)methyl)-2-(4-isopropylpiperidin-1-yl)pyrimidin-5-amine]

Row | pEC50 (Table 2) | pEC50 (Table 3) | SMILES
23 | 7.00 to 10.00 |  | CC1(C)CCc2cc(NC3CCC(N)CC3)ccc21 (centres unmarked) [Compound 330A, N1-(1,1-dimethyl-2,3-dihydro-1H-inden-5-yl)cyclohexane-1,4-diamine]
24 | 7.00 to 10.00 |  | Cc1nc(N2C[C@H](C)O[C@@H](C)C2)ccc1NC1CC2(CC(N)C2)C1 (stereo partly drawn) [Compound 479, N2-(6-((2S,6S)-2,6-dimethylmorpholino)-2-methylpyridin-3-yl)spiro[3.3]heptane-2,6-diamine]
25 | 7.00 to 10.00 |  | Cc1cc(N2CCC(C(F)(F)F)CC2)cc(C)c1NCC[C@H]1CC[C@H](N)CC1 [Compound 391, N-(2-((1r,4r)-4-aminocyclohexyl)ethyl)-2,6-dimethyl-4-(4-(trifluoromethyl)piperidin-1-yl) aniline]
26 | 7.00 to 10.00 |  | CCCOc1ccc(NC2CCC(N)CC2)cc1 (centres unmarked) [Compound 174, N1-(4-propoxyphenyl)cyclohexane-1,4-diamine]
27 |  | 7.00 to 10.00 | Cc1cc(N2CC(C)N(CC(F)(F)F)C(C)C2)ccc1NC1CC2(CC(N)C2)C1 (centres unmarked) [Compound 636, N2-(4-(3,5-dimethyl-4-(2,2,2-trifluoroethyl)piperazin-1-yl)-2-methylphenyl)spiro[3.3]heptane-2,6-diamine]
28 | 5.00 to 6.00 |  | CC(C)C1CCN(c2cnc(NC3CCC(N)CC3)nc2)CC1 (centres unmarked) [Compound 400, N1-(5-(4-isopropylpiperidin-1-yl)pyrimidin-2-yl)cyclohexane-1,4-diamine]
29 | 6.00 to 7.00 |  | Cc1cc(N2C[C@@H](C)O[C@@H](C)C2)ncc1NC1CC2(CC(N)C2)C1 (stereo partly drawn) [Compound 487, N2-(6-((2S,6R)-2,6-dimethylmorpholino)-4-methylpyridin-3-yl)spiro[3.3]heptane-2,6-diamine]
30 | 7.00 to 10.00 |  | Cc1nc(N2C[C@@H](C)N(CC(F)(F)F)[C@@H](C)C2)ccc1NC1C2CC3CC1CC(N)(C3)C2 (stereo partly drawn) [Compound 540, N4-(6-((3R,5S)-3,5-dimethyl-4-(2,2,2-trifluoroethyl)piperazin-1-yl)-2-methylpyridin-3-yl)adamantane-1,4-diamine]
31 | 7.00 to 10.00 |  | CC1(C)CCC(C)(C)c2cc(NC3CCC(N)CC3)ccc21 (centres unmarked) [Compound 265, N1-(5,5,8,8-tetramethyl-5,6,7,8-tetrahydronaphthalen-2-yl)cyclohexane-1,4-diamine]
32 | 7.00 to 10.00 |  | COCCOc1cc(NC2CCC(N)CC2)ccc1N1CCC(C(F)(F)F)CC1 (centres unmarked) [Compound 473, N1-(3-(2-methoxyethoxy)-4-(4-(trifluoromethyl)piperidin-1-yl)phenyl)cyclohexane-1,4-diamine]
33 | 6.00 to 7.00 |  | O=C1NC[C@H](C(=O)NC2CCC(Nc3ccc(C4CCCCC4)cc3)CC2)N1 (stereo partly drawn) [Compound 111, (R)—N-(4-((4-cyclohexylphenyl)amino)cyclohexyl)-2-oxoimidazolidine-4-carboxamide]
34 | 6.00 to 7.00 |  | Cc1ccc(NC2CCC(CN)CC2)cc1C (centres unmarked) [Compound 282, N-(4-(aminomethyl)cyclohexyl)-3,4-dimethylaniline]
35 | 7.00 to 10.00 |  | CC1(C)CCC(c2ccc(NC3CCC(CO)CC3)cc2)CC1 (centres unmarked) [Compound 90]
36 | 5.00 to 6.00 |  | CC(C)(C)c1ccc(NC2CCC(NCCCN)CC2)cc1 (centres unmarked) [Compound 267, 1-N-(3-aminopropyl)-4-N-(4-(tert-butyl)phenyl)cyclohexane-1,4-diamine]
37 | 6.00 to 7.00 |  | Cc1nc(N2CCCOCC2)ccc1NC1CC2(CC(N)C2)C1 (centres unmarked) [Compound 499, N2-(2-methyl-6-(1,4-oxazepan-4-yl)pyridin-3-yl)spiro[3.3]heptane-2,6-diamine]
38 | 7.00 to 10.00 |  | CC(C)C1CCN(c2ncc(NC3C4CC5CC3CC(O)(C5)C4)cn2)CC1 (centres unmarked) [Compound 424, 4-((2-(4-isopropylpiperidin-1-yl)pyrimidin-5-yl)amino) adamantan-1-ol]
39 | 7.00 to 10.00 |  | Cc1cc(NC[C@H]2CC[C@H](N)CC2)cc(C)c1N1CC(C)OC(C)C1 (some centres unmarked) [Compound 451, (((1r,4r)-4-aminocyclohexyl)methyl)-4-(2,6-dimethylmorpholino)-3,5-dimethylaniline]
40 | 6.00 to 7.00 |  | CC1CN(c2ccc(NC[C@H]3CC[C@H](N)CC3)cc2)CC(C)N1C (some centres unmarked) [Compound 525, N-(((1r,4r)-4-aminocyclohexyl)methyl)-4-(3,4,5-trimethylpiperazin-1-yl)aniline]
41 | 7.00 to 10.00 |  | COc1cc(N2CC(C)OC(C)C2)ccc1NC[C@H]1CC[C@H](N)CC1 (some centres unmarked) [Compound 497, N-(((1r,4r)-4-aminocyclohexyl)methyl)-4-(2,6-dimethylmorpholino)-2-methoxyaniline]
42 | 7.00 to 10.00 |  | CC1(C)CCN(c2ncc(NC3CCC(N)CC3)cn2)CC1 (centres unmarked) [Compound 45, N1-(2-(4,4-dimethylpiperidin-1-yl)pyrimidin-5-yl)cyclohexane-1,4-diamine]
43 | 5.00 to 6.00 |  | COCCc1ccc(NC2CCC(N)CC2)cc1CCOC (centres unmarked) [Compound 352, N1-(3,4-bis(2-methoxyethyl)phenyl)cyclohexane-1,4-diamine]

Row | SMILES | pEC50 (Table 2) | pEC50 (Table 3)
44 | CC(C)(C)Nc1ccc(C2CCNCC2)cc1 [Compound 207, N-(tert-butyl)-4-(piperidin-4-yl)aniline] | 5.00 to 6.00 | 
